Laboratory results published in patent publication US12390458B2, “Therapeutic combination of quinoline derivative and antibody” (CHIA TAI TIANQING PHARMACEUTICAL GROUP CO., LTD., priority 2018, dated 2025).
Where a name gives a salt, the structure may show the parent alone.

How the values were obtained:
[1] = Open, multicenter phase Ib/II clinical study, first-line 14C12H1L1 plus anlotinib hydrochloride: adverse events; assay type: in vivo, human; conditions: patients on combined 14C12H1L1 + anlotinib, events related to the labelled treatment; for TRAE (incidence of treatment-related adverse events) / ≥ grade 3 TRAEs: by Jun. 27, 2019
Text: This example discloses the results of an early open, multicenter phase Ib/II clinical study on first-line treatment of unresectable hepatocellular carcinoma with combined use of 14C12H1L1 and anlotinib hydrochloride.
This study is an open, multicenter phase Ib/II clinical study aimed at evaluating the effectiveness, i.e. safety, of 14C12H1L1 in combination with anlotinib in the first line treatment of unresectable hepatocellular carcinoma.
Secondary endpoints: (1) disease control rate (DCR), duration of response (DOR), time to response (TTR), progression-free survival (PFS), and treatment past progression (TPP) being evaluated by investigators according to RECISIT v1.1; (2) overall survival (OS); (3) safety evaluation: incidence and severity of AEs, clinically significant abnormal laboratory test results.
14C12H1L1 injection, 100 mg/10 mL solution; manufacturer: Akeso Tiancheng Guangdong Co., Ltd.; stored at 2-8° C. in the absence of light.
Anlotinib hydrochloride capsules (FOCUS V®), 8 mg/capsule; manufacturer: Chia Tai Tianging Pharmaceutical Group Co., Ltd.; sealed and be away from light.
14C12H1L1 in combination with anlotinib, wherein the 14C12H1L1: 200 mg, Q3W intravenous injection; anlotinib: taken once a day, 8 mg each time, 14 days of treatment plus 7 days of interruption, i.e., a treatment cycle of 21 days.

[2] = Body weight and tolerance of H22 tumor-bearing mice; assay type: in vivo
Procedure: The use and welfare of the laboratory animals were carried out in compliance with the provisions of Association for Assessment and Accreditation of Laboratory Animal Care, International (AAALAC). The health and death of the animals are monitored daily and routine examinations include observation of the effects of the test substance or drug on the daily performance of the animals, such as behavioral activities, weight changes, appearance, etc.
(§1) H22 cells were inoculated to each mouse subcutaneously, and when the tumor grew to 100-200 mm^3, the mice were randomly grouped and intragastrically (i.g.) administered or intraperitoneal (IP) injected with drug; the mice in the solvent group were intragastrically administrated with distilled water with the same volume; the administration volume was 0.1 mL/10 g body weight; specific administration dosages and regimes are shown in Table 4.

[3] = tested on: mouse liver cancer H22 subcutaneous xenograft tumor; assay: Efficacy on mouse liver cancer H22 subcutaneous xenograft tumor; assay type: in vivo; conditions: for Mean tumor volume (mm^3) D0: D0, day of first administration (baseline), KM mice, 10 per group; for % T/C D17 / Tumor growth inhibition (%): anlotinib hydrochloride 1 mg/kg i.g. QD×17, lenvatinib mesylate 5 mg/kg i.g. QD×17, mPD-1 1 mg/kg IP 5 times; for % T/C D17 / Tumor growth inhibition (%) / Mean tumor volume (mm^3) D17: D17; for Mean tumor volume (mm^3) D17: anlotinib hydrochloride 1 mg/kg i.g. QD×17, lenvatinib mesylate 5 mg/kg i.g. QD×17, mPD-1 1 mg/kg IP D0, D3, D7, D10, D14; for Complete regression / Partial regression: number of animals out of 10 per group
Procedure: The H22 cells were cultured in a 10-cm petri dish with RPMI 1640 medium containing 10% fetal bovine serum, penicillin and streptomycin in an incubator at 37° C. and 5% CO2. Subculturing was carried out twice a week and cells were collected, counted and inoculated when the cells grew exponentially.
KM mice, 6-7 weeks old, female, purchased from Shanghai JSJ Laboratory Animal Co. Ltd. Production license No.: SCXK (Shanghai) 2013-0006; animal certification No.: 311620400013790. Breeding environment: SPF grade.
The experimental index is to study the influence of the drug on the tumor growth, and the specific index is T/C (%) or tumor growth inhibition TGI (%).
Tumor diameters were measured twice weekly with a vernier caliper and tumor volume (V) was calculated according to the following formula: V=½×a×b^2, where a and b represent length and width, respectively.
T/C (%)=(T−T0)/(C−C0)×100, where T and C are the tumor volumes of animals at the end of the experiment in the test group and control group, respectively; T0 and C0 are the tumor volumes of animals at the beginning of the experiment in the test group and control group, respectively. Tumor growth inhibition (TGI)(%)=100−T/C(%). Tumor growth inhibition (TGI)(%)=100−(T−T0)/T0×100 when tumor started to regress.
If the volume of tumor shrinks compared with its initial volume, i.e., T<T0 […], it is defined as partial regression (PR) of tumor; if the tumor completely disappears, it is defined as complete regression (CR) of tumor.
as §1
After the experiment was completed, or when the tumor volume of the animals reached the euthanization endpoint of 1500 mm^3, the animals were put to death through carbon dioxide inhalation, followed by dissecting to take the tumor tissue and weighing and photographing.

advanced NSCLC = conditions: phase III; Chinese patients; cited from earlier work
[4] = phase II trial; cited from earlier work

Compound: 14C12H1L1: anti-PD-1 monoclonal antibody (Akeso Bioscience); CN106977602A; CDRs SEQ ID NO: 25-30
- TRAE (incidence of treatment-related adverse events) [1]: 62.5%
- ≥ grade 3 TRAEs [1]: 6.25%
- SAE [1]: 6.25%
- TRAEs resulting in the withdrawal [1]: 6.25%

Compound: COc1cc2c(Oc3ccc4[nH]c(C)cc4c3F)ccnc2cc1OCC1(N)CC1 [Anlotinib hydrochloride, 1-[[[4-(4-fluoro-2-methyl-1H-indol-5-yl)oxy-6-methoxyquinolin-7-yl]oxy]methyl]cyclopropylamine hydrochloride]
- body weight / tolerance of tumor-bearing mice ([2]; D0-D17, anlotinib hydrochloride 1 mg/kg, lenvatinib mesylate 5 mg/kg, mPD-1 1 mg/kg): no symptom like obvious weight loss
- Mean tumor volume (mm^3) D0 [3]: 131.4 mm^3
- % T/C D17 [3]: 38.3%
- Tumor growth inhibition (%) [3]: 61.7%
- Mean tumor volume (mm^3) D17 [3]: 975.3 mm^3
- Complete regression ([3]; same doses): 0
- Partial regression ([3]; same doses): 0

Compound: COc1cc2c(Oc3ccc4[nH]c(C)cc4c3F)ccnc2cc1OCC1(N)CC1 [Anlotinib, 1-[[[4-(4-fluoro-2-methyl-1H-indol-5-yl)oxy-6-methoxyquinolin-7-yl]oxy]methyl]cyclopropylamine]
- overall survival and progression-free survival (advanced NSCLC): extended overall survival and progression-free survival
- tolerability (advanced NSCLC): well tolerated
- TRAE (incidence of treatment-related adverse events) [1]: 75%
- ≥ grade 3 TRAEs [1]: 12.5%
- SAE [1]: 12.5%
- TRAEs resulting in the withdrawal [1]: 12.5%
- overall survival [4]: potential benefit for overall survival
- progression-free survival [4]: improve progression-free survival

Compound: COc1cc2nccc(Oc3ccc(NC(=O)NC4CC4)c(Cl)c3)c2cc1C(N)=O [Lenvatinib mesylate]
- body weight / tolerance of tumor-bearing mice ([2]; mouse, in vivo): no symptom like obvious weight loss
- Mean tumor volume (mm^3) D0 [3]: 127.6 mm^3
- tumor growth / efficacy in words ([3]; D0-D17, same doses, comparison between groups): obviously inhibits the growth
- % T/C D17 [3]: 21.0%
- Tumor growth inhibition (%) [3]: 79%
- Mean tumor volume (mm^3) D17 [3]: 590.8 mm^3
- Complete regression ([3]; same doses): 0
- Partial regression ([3]; same doses): 0
